{
  "source": "paper PMC5429769",
  "about": "“Rational development of Stafib-2: a selective, nanomolar inhibitor of the transcription factor STAT5b” (Scientific Reports, 2017)",
  "type_in_all_cases": "binding",
  "key": {"STAT5b SH2 domain": {"molecular_target": "T1, STAT5b SH2 domain (Homo sapiens, UniProt P51692)", "T1 sequence (P51692 1-787)": "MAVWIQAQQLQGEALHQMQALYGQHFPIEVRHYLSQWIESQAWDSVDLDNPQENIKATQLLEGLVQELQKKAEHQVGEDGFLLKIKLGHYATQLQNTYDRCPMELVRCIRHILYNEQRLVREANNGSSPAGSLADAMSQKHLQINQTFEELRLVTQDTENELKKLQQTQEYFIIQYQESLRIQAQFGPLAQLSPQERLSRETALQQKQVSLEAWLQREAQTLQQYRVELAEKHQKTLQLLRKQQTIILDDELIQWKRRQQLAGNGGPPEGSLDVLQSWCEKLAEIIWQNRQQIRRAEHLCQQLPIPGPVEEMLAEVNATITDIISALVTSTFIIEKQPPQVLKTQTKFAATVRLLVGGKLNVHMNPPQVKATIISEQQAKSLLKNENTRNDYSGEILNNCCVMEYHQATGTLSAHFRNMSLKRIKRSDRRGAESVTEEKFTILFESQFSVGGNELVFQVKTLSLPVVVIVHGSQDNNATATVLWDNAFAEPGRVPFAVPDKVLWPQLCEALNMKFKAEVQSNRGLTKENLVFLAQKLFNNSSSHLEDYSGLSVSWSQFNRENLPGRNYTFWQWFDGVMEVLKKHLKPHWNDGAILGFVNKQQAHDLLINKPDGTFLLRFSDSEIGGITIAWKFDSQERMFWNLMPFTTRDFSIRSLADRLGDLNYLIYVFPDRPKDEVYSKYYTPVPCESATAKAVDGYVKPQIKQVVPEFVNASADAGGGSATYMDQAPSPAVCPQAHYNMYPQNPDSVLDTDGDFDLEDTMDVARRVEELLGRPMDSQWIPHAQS", "assay": "Fluorescence polarization assay, STAT5b SH2 domain"}, "STAT5a SH2 domain": {"molecular_target": "T2, STAT5a SH2 domain (Homo sapiens, UniProt P42229)", "T2 sequence (P42229 1-794)": "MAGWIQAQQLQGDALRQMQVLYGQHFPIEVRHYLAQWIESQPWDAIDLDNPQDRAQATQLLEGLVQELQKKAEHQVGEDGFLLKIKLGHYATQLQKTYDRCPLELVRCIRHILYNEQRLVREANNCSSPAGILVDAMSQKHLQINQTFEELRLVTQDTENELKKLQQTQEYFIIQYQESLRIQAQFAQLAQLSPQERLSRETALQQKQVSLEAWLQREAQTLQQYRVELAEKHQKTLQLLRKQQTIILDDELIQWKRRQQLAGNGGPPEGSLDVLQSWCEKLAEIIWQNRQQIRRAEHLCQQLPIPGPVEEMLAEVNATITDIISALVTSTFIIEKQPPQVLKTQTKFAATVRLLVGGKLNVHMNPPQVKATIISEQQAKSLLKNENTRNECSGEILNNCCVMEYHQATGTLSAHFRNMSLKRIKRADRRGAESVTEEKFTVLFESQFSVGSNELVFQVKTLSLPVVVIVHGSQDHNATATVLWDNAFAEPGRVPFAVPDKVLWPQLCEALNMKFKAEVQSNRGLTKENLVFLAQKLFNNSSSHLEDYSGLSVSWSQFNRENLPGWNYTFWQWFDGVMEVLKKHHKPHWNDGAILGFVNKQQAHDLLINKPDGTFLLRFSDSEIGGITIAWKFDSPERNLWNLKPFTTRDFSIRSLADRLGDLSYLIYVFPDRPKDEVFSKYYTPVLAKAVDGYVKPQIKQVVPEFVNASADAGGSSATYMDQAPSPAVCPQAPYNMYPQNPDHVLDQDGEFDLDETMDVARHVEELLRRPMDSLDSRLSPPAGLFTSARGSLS", "assay": "Fluorescence polarization assay, STAT5a SH2 domain", "details": "mean ± s.d."}, "wild-type STAT5b": {"molecular_target": "T3, wild-type STAT5b (Homo sapiens, UniProt P51692)", "T3 sequence (P51692 1-787)": "T1 sequence (P51692 1-787)", "assay": "Isothermal titration calorimetry, wild-type STAT5b", "details": "ITC, 25 °C, n = 3"}, "STAT5b Lys600Ala": {"molecular_target": "T4, STAT5b Lys600Ala (Homo sapiens, UniProt P51692, K600A)", "T4 sequence (P51692 1-787 K600A)": "T1 sequence (P51692 1-787) with K600A", "assay": "Isothermal titration calorimetry, STAT5b Lys600Ala", "details": "ITC, 25 °C"}, "STAT5a wild-type": {"molecular_target": "T5, STAT5a wild-type (Homo sapiens, UniProt P42229)", "T5 sequence (P42229 1-794)": "T2 sequence (P42229 1-794)", "assay": "Isothermal titration calorimetry, STAT5a wild-type"}},
  "note": "Residue numbers refer to the chain shown, from its start.",
  "data": [
    {"smiles": "O=C(COc1ccc(C(=O)Nc2ccc(Oc3ccccc3)cc2)cc1)NCc1ccc(OP(=O)(O)O)c(OP(=O)(O)O)c1", "note": "[compound 4, 4-((2-(4-((4-phenoxyphenyl)carbamoyl)phenoxy)acetamido)methyl)-1,2-phenylene bis(dihydrogen phosphate)]", "values": [
      {"measurement": "fold reduced Ki value relative to 2", "setting": "STAT5b SH2 domain; STAT5b Ki", "result": 5, "unit": "fold"},
      {"measurement": "fold reduction in Ki value relative to 3", "setting": "STAT5b SH2 domain; STAT5b Ki", "result": "more than 10 fold"},
      {"measurement": "Ki", "setting": "STAT5b SH2 domain; abstract, rounded", "result": 9, "unit": "nM"},
      {"measurement": "Ki", "setting": "STAT5b SH2 domain; converted from IC50 using the published equation, mean ± s.d., n = 3", "result": "8.8 ± 0.3", "unit": "nM"},
      {"measurement": "IC50", "setting": "STAT5b SH2 domain; fluorescence polarization, mean ± s.d., three independent experiments", "result": "82 ± 3", "unit": "nM"},
      {"measurement": "Ki", "setting": "STAT5a SH2 domain; converted from IC50 using the published equation, n = 3", "result": "1300 ± 100", "unit": "nM"},
      {"measurement": "IC50", "setting": "STAT5a SH2 domain; fluorescence polarization, three independent experiments", "result": "2700 ± 200", "unit": "nM"},
      {"measurement": "ΔH", "setting": "wild-type STAT5b", "result": "-4.1 ± 0.5", "unit": "kcal/mol"},
      {"measurement": "−TΔS", "setting": "wild-type STAT5b", "result": "-4.8 ± 0.6", "unit": "kcal/mol"},
      {"measurement": "Kd", "setting": "STAT5b Lys600Ala", "result": "23000 ± 10000", "unit": "nM"},
      {"measurement": "fold lower affinity for STAT5a than for STAT5b", "setting": "STAT5a wild-type; ITC Kd STAT5a vs wild-type STAT5b", "result": "approximately 20 fold"},
      {"measurement": "Kd", "setting": "STAT5a wild-type; ITC, 25 °C, STAT5a", "result": "6100 ± 3200", "unit": "nM"}
    ]}
  ]
}
